The record followed here is patent US11679097B2, “Combination product containing limonoid compound and biguanide compound” (ZHEJIANG YANGSHENGTANG INSTITUTE OF NATURAL MEDICATION CO., …, priority 2017, dated 2023).

Molecules are shown by their SMILES.

Common to all, as to assay type: in vivo
One assay concerns STZ mice. Put plainly: Blood glucose in mouse model of type II diabetes with pancreatic islet damage and obesity (Example 5). Conditions: high-fat diet + STZ ICR mice; single administration 0.5 g/kg per day by gavage, three weeks. The protocol: (§1) It should be noted that the conditions for raising the mice were as follows: the temperature was 23±1° C., the humidity was 55±10%, the lights were turned on between 7 am and 7 pm (the lights were turned off at other time), and the mice were allowed to access to water and feed freely. The experimental feed was mouse growth-stable feed (GB M2118), and the daily feeding and management of the animals were under the responsibility of the animal security department, which provided the animals with sufficient padding and fresh drinking water daily.
SPSS 16.0 software was used for statistical analysis.

The next assay relates to ICR mice. The assay can be described thus: Body weight, triglycerides and total cholesterol in obesity mouse model (Example 6). Conditions: high-fat feed ICR mice, single administration 0.1 g/kg per day by gavage, two weeks.
Source text: Effects of a Limonoid Compound, Metformin or a Combination Thereof on Body Weight, Triglycerides, and Total Cholesterol in an Obesity Mouse Model
In this example, ICR mice were used to complete the experiment for evaluation of lipid lowering and weight loss in animals (body weight, serum cholesterol, and serum triglycerides).
In this example, the limonoid compound was nomilin, and a metformin single administration group, nomilin single administration group, and metformin/nomilin combination administration groups (dose A and B groups) were set, respectively.
as §1, with “Conditions of experimental feeding: ICR mice, purchased from the Animal Center of Zhejiang Academy of Medical Sciences, half male and half female, body weight (20±2 g), fed with basic feed provided by the Animal Center of Zhejiang Medical Academy. It” for “It”, “The” for “The experimental feed was mouse growth-stable feed (GB M2118), and the”
The ICR mice were randomly divided into the normal group and the high-fat feed group, according to body weight. The normal group was fed with ordinary feed from the beginning to the end of the experiment.
Gavage dose: nomilin at a dose of 0.1 g/kg was gavaged per day for the nomilin group, metformin at a dose of 0.1 g/kg was gavaged per day for the metformin group, nomilin at a dose of 0.05 g/kg and metformin at a dose of 0.05 g/kg were simultaneously gavaged per day for the combination dose group A, nomilin at a dose of 0.1 g/kg and metformin at a dose of 0.1 g/kg were simultaneously gavaged per day for the combination dose group B, the gavage volume was 10 mL/kg, and the normal group and the model group were administrated with 10 mL/kg of distilled water. Two weeks later, the mice were weighed, blood sampled from orbital cavity, measured to determine serum total cholesterol and triglyceride levels, and the average values of each group were obtained. SPSS 16.0 software was used for statistical analysis. The data were expressed as mean and standard deviation. The data before and after were analyzed by t-test, and P<0.05 was considered statistically significant.

Another assay deals with db/db mice. Put plainly: Blood glucose and insulin in mouse model of type II diabetes (Example 4). Conditions: single administration 0.2 g/kg per day by gavage, two weeks.
Source text: Effects of a Limonoid Compound, Metformin or a Combination Thereof on Blood Glucose and Insulin in a Mouse Model of Type II Diabetes
In the present embodiment, the limonoid compound selected nomilin, deacetylnomilin, nomilin acid, deactylnomilin 17-β-D-glucopyranoside, and a nomilin single administration group, deacetylnomilin single administration group, nomilin acid single administered group, deactylnomilin 17-β-D-glucopyranoside single administration group, and combination thereof with metformin administration groups were set, respectively.
as §1, with “Conditions for experimental feeding: as type II diabetes model mice, 6-week-old SPF-grade db/db mice were purchased from the Nanjing Model Biology Institute, and subjected to experimental feeding after 7 days of preliminary feeding. It” for “It”
Experimental grouping: male db/db mice (20±2 g) were selected, 18 male mice in each group were tested, and drinking bottles were sterilized weekly. The experimental groups included the normal control group (db/m, n=18), the model group (db/db, n=18), the nomilin group (db/db, n=18), the deacetylnomilin group (db/db, n=18), the nomilin acid group (db/db, n=18), the deactylnomilin 17-β-D-glucopyranoside group (db/db, n=18), the metformin group (db/db, n=18), the nomilin/metformin combination group (db/db, n=18), the deacetylnomilin/metformin combination group (db/db, n=18), the nomilin acid/metformin combination group (db/db, n=18), the deactylnomilin 17-β-D-glucopyranoside/combination group (db/db, n=18).
Gavage doses: nomilin at a dose of 0.2 g/kg was gavaged per day for the nomilin group, deacetylnomilin at a dose of 0.2 g/kg was gavaged per day for the deacetylnomilin group, nomilin acid at a dose of 0.2 g/kg was gavaged per day for the nomilin acid group, deacetylnomilin […] at a dose of 0.2 g/kg was gavaged per day for the deactylnomilin glucopyranoside group, metformin at a dose of 0.2 g/kg was gavaged per day for the metformin group, nomilin at a dose of 0.1 g/kg and metformin at a dose of 0.1 g/kg were simultaneously gavaged per day for the nomilin/metformin combination group, nomilin acid at a dose of 0.1 g/kg and metformin at a dose of 0.1 g/kg were simultaneously gavaged per day for the nomilin acid/metformin combination group, deacetylnomilin at a dose of 0.1 g/kg and metformin at a dose of 0.1 g/kg were simultaneously gavaged per day for the deacetylnomilin/metformin combination group, deactylnomilin 17-β-D-glucopyranoside at a dose of 0.1 g/kg and metformin at a dose of 0.1 g/kg were simultaneously gavaged per day for the deactylnomilin 17-β-D-glucopyranoside/metformin combination group, the gavage volume was 10 mL/kg, and the normal group and the model group were administrated with 10 mL/kg of distilled water. Two weeks later, the blood glucose values were measured by tail trimming method (Johnson's blood glucose meter) 1 h after the last administration, and serum insulin levels were measured with blood collected from orbital cavity by enzyme-linked immunosorbent assay (Elisa), and the average of each group was obtained. SPSS 16.0 software was used for statistical analysis. The data were expressed as mean and standard deviation. The data before and after were analyzed by t-test, and P<0.05 was considered statistically significant.

For the molecule `CN(C)C(=N)NC(=N)N` [Metformin, N,N-dimethylimidodicarbonimidic diamide, reference compound], the Blood glucose value in the assay with STZ mice is reported as 17.9 ± 3.6 mmol/L. In addition, the “Body weight gaining rate” value with ICR mice came out at 11.56%. For the same molecule, in the assay on ICR mice (serum), the Total cholesterol is 3.35 ± 0.07 mmol/L and the Triglycerides was 1.17 ± 0.30 mmol/L. The Insulin in the assay on db/db mice (serum, Elisa) amounted to 8.19 ± 2.10 pg/mL. Besides, the Blood glucose value with db/db mice (1 h after last administration) came out at 12.2 ± 3.6 mmol/L.
